Common to all, as to test: inhibition of tumour cell growth, NCI panel, 48 h
In assay [1] the test system is HCC-2998 colon.
Assay [2] concerns TK-10 renal.
Assay [3] has as its system MDA-MB-435.
In assay [4] the test system is SW-620 colon.
In assay [5] the test system is NCI/ADR-RES ovarian.
For assay [6], the system named is A498 renal.
Assay [7] relates to SK-OV-3 ovarian.
For assay [8], the system named is KM12 colon.
In assay [9] the test system is ACHN renal.
Assay [10] has as its system NCI-H226 lung.

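Following 48 hours of exposure in 96-well plates, responses at five concentrations were used to interpolate endpoints linearly. Abbreviation: GI50, concentration required for 50% inhibition of growth. The concentration for full growth arrest is given as TGI.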

The results in this text go back to PubChem BioAssay (NCI).

As for `CC1(C)OC(=O)C(=Cc2ccc([N+](=O)[O-])s2)C(=O)O1`, the TGI was determined as 24.7 µM in [1]; 31.5 µM in assay [2]; 30.4 µM in [3]; 4.1 µM in [4]; 39.8 µM in [5]; 54.7 µM in assay [6]. Also, the TGI in [7] stood at 65.3 µM; in assay [8] it was 29 µM; in [9], 27.3 µM; in assay [10], 60.5 µM.
Regarding `CC[C@@]1(O)C(=O)NCc2c1cc1n(c2=O)Cc2cc3c(NC(C)=O)cccc3nc2-1`, the GI50 in [1] is above 100 µM; in assay [2], above 100 µM; in [3] it was above 100 µM; in assay [4], above 86.6 µM; in assay [5], above 100 µM; in assay [6], above 100 µM. The GI50 in [7], in assay [8], in [9] and in assay [10] was above 100 µM in each case. In addition, the TGI in assay [1], in [2], in assay [3], in assay [4], in [5] and in [6] was above 100 µM in each case. Besides, the TGI in assay [7], in [8], in [9] and in [10] was above 100 µM each time.
With `O=C1NC(=O)C(c2c[nH]c3ccccc23)=C1c1ccccc1`, the GI50 is above 25 µM in assay [1]; above 25 µM in assay [2]; above 25 µM in [3]; above 25 µM in assay [4]; above 25 µM in assay [5]; above 17.6 µM in assay [6]. For the same molecule, the GI50 is above 25 µM in assay [7], above 25 µM in assay [8], above 25 µM in assay [9] and above 20.1 µM in [10]. In addition, the TGI in [1], in assay [2], in assay [3], in assay [4], in [5] and in assay [6] was above 25 µM throughout. Besides, the TGI in assay [7], in assay [8], in assay [9] and in assay [10] was above 25 µM throughout.
In the case of `CCOC(=O)c1cc(-c2ccccc2)[nH]c1N/N=C/c1c(Cl)cccc1Cl`, the GI50 in [1] is 1.01 µM; in assay [2] it was 13.2 µM; in assay [3], 0.272 µM; in assay [4], 0.433 µM; in [5] it was 0.509 µM; in [6], 1.08 µM. The GI50 in [7] is 2.4 µM; in assay [8] it was 0.584 µM; in assay [9] it was 0.874 µM; in assay [10], 1.5 µM. Further, the TGI is 7.48 µM in assay [1]; above 87.8 µM in assay [2]; 2.83 µM in assay [3]; above 81.2 µM in assay [4]; 14.6 µM in assay [5]; 43.7 µM in [6]. The TGI in assay [7] is above 100 µM; in assay [8] it was 24.3 µM; in assay [9], above 100 µM; in [10], 12.4 µM.
With `COc1cc(NC(=O)c2ccccc2Nc2ccnc(C(F)(F)F)c2)cc(OC)c1OC`, the GI50 is 88.3 µM in [1]; 72.3 µM in assay [2]; 63.3 µM in assay [3]; above 100 µM in [4]; 32.3 µM in [5]; 26.6 µM in assay [6]. Besides, the GI50 in [7] is above 100 µM; in [8], 54.9 µM; in [9], 99.9 µM; in assay [10] it was 77.7 µM. Besides, the TGI in [1], in [2], in [3], in assay [4], in assay [5] and in [6] was above 100 µM throughout. The TGI in assay [7], in assay [8], in [9] and in assay [10] was above 100 µM each time.
